# Source: patent US10688031B2, “Low-toxicity sophorolipid-containing composition and use therefor” (Saraya Co., Ltd., priority 2013, dated 2020)
# Tests used:
# [1] = Critical micelle concentration (CMC) and surface tension-reducing ability, Wilhelmy method; type: physicochemical
# Method: The critical micelle concentration (CMC) and surface tension-reducing ability were measured according to the Wilhelmy method. The measurements were performed at pH 7 at 20° C. using a CBVP-Z automatic surface tensiometer (produced by Kyowa Interface Science Co., Ltd.). For pH adjustment, an aqueous sodium hydroxide solution or an aqueous hydrochloric acid solution was used.
# The critical micelle concentration (CMC) and surface tension-reducing ability of these SL-containing compositions were measured, and their performance as surfactants (wettability, solubilizing power, detergency, and foamability) was evaluated. The critical micelle concentration (CMC) and surface tension-reducing ability were measured in the same manner as in Test Example 2 according to the Wilhelmy method. Specifically, the measurement was performed at pH 7 at 20° C. using a CBVP-Z automatic surface tensiometer (produced by Kyowa Interface Science Co., Ltd.).
# HeLa cells = experiment: Cytotoxicity test using HeLa cells (MTT assay); type: cell-based, human; details: 48 hours of treatment
# Method: HeLa cells (Kurabo Industries, Ltd.) were seeded in a 96-well plate to a concentration of 2×10^4 cells/well and cultured in Dulbecco's Modified Eagle Medium (produced by Nissui Pharmaceutical Co., Ltd.) containing 10% NCS (Newborn Calf Serum: produced by Invitrogen), non-essential amino acids, 58 μg/ml L-glutamic acid, 60 μg/ml kanamycin at 37° C., 5% CO2 for 72 hours. The medium was replaced with media containing the samples. After 48 hours, each medium was replaced with a medium containing 1 mg/ml MTT (3-(4,5-dimethyl-2-thiazolyl)-2,5-diphenyl-2H-tetrazolium bromide). After the treatment was allowed to proceed for 2 hours, formazan dye was extracted with isopropanol. Absorbance at a wavelength of 570 nm was measured. The viability % of the cells was calculated according to the following Formula.
# The cell viability was calculated from the above MTT assay, and the cell lethal concentration (IC50) was determined from the obtained cell viability.
Compound,"CMC ([1]; Table 5, repeated from Test Example 2) [ppm]","Critical micelle concentration (CMC) ([1]; pH 7, 20° C., Table 4) [ppm]","Surface tension-reducing ability ([1]; pH 7, 20° C., Table 4) [mN/m]",cell lethal concentration (IC50) (HeLa cells) [ppm]
"CCCCCCCCCCCCOS(=O)(=O)[O-].[Na+] [SLS, Sodium Lauryl Sulfate]",300,300,34.0,<10
CCCCCCCC/C=C\CCCCCCCC(=O)O [oleic acid],,,,300
